Data taken from patent US8742110B2, “Spiroxazolidinone compounds” (Merck Sharp & Dohme Corp., priority 2010, dated 2014).
Counter-ions that a name gives are not always drawn.

Target: SSTR5 (Homo sapiens (Human), UniProt P35346)
Assay: SSTR5 binding assay
Conditions: CHO-K1 membranes expressing cloned human SSTR5
Method: The receptor-ligand binding assays of all 5 subtype of SSTRs were performed with membranes isolated from Chinese hamster ovary (CHO)-K1 cells stably expressing the cloned human somatostatin receptors in 96-well format as previous reported.
The stable cell lines for SSTR1-SSTR5 were developed by stably transfecting with DNA for all five SSTRs using Lipofectamine. […] The assay buffer consisted of 50 mM TrisHCl (pH 7.8) with 1 mM EGTA, […] MgCl2, leupeptin (10 μg/mL), pepstatin (10 μg/mL), bacitracin (200 μg/mL), and aprotinin (0.5 μg/mL). CHO-K1 cell membranes, radiolabeled somatostatin, and unlabeled test compounds were resuspended or diluted in this assay buffer. Unlabeled test compounds were examined over a range of concentrations from 0.01 nM to 10,000 nM.
Compounds exemplified were tested in the SSTR5 binding assay.

Sequence of SSTR5 (P35346 whole entry): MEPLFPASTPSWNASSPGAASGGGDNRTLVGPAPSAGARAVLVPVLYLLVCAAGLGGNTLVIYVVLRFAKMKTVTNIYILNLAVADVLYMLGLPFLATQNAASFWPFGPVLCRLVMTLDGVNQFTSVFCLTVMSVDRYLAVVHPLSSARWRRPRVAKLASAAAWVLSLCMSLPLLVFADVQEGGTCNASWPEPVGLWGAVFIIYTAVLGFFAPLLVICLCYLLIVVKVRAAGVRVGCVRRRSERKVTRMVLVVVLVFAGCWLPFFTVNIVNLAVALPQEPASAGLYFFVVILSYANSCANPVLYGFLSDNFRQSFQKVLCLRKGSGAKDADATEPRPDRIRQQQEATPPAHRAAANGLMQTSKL

An IC50 of 210 nM was found for O=C(O)c1ccc(N2CC3(CCN(Cc4ccc5c(c4)OCO5)CC3)OC2=O)cc1 [Example 5-17, 4-{8-[(1,3-Benzodioxol-5-yl)methyl]-2-oxo-1-oxa-3,8-diazaspiro[4.5]dec-3-yl}benzoic acid, TFA salt] in this work.

An IC50 of 149 nM was found for CC(C)n1nc(CN2CCC3(CC2)CN(c2ccc(C(=O)O)cc2)C(=O)O3)c2cc(F)ccc21 [Example 6-5, 4-(8-{[5-Fluoro-1-(propan-2-yl)-1H-indazol-3-yl]methyl}-2-oxo-1-oxa-3,8-diazaspiro[4.5]dec-3-yl)benzoic acid, TFA salt] in this work.

An IC50 of 0.407 nM was found for CCOc1cc(CN2CCC3(CC2)CN(c2ccc(C(=O)O)cc2)C(=O)O3)c(-c2ccc(F)nc2)cc1C [Example 4-14, 4-{8-[5-Ethoxy-2-(6-fluoropyridin-3-yl)-4-methylbenzyl]-2-oxo-1-oxa-3,8-diazaspiro[4.5]dec-3-yl}benzoic acid, TFA salt] in this work.

An IC50 of 2.16 nM was found for CC(C)(C)n1cc(CN2CCC3(CC2)CN(c2ccc(C(=O)O)cc2)C(=O)O3)c(-c2c(F)cc(F)cc2F)n1 [Example 1-8, 4-(8-{[1-tert-Butyl-3-(2,4,6-trifluorophenyl)-1H-pyrazol-4-yl]methyl}-2-oxo-1-oxa-3,8-diazaspiro[4.5]dec-3-yl)benzoic acid, TFA salt] in this work.

An IC50 of 191 nM was found for COc1c(-c2cn(C(C)C)nc2CN2CCC3(CC2)CN(c2ccc(C(=O)O)cc2)C(=O)O3)ccc(F)c1F [Example 2-5, 4-(8-{[4-(3,4-Difluoro-2-methoxyphenyl)-1-(propan-2-yl)-1H-pyrazol-3-yl]methyl}-2-oxo-1-oxa-3,8-diazaspiro[4.5]dec-3-yl)benzoic acid, TFA salt] in this work.

An IC50 of 89.3 nM was found for O=C(O)c1ccc(N2CC3(CCN(Cc4nn(Cc5ccc(Cl)cc5)cc4-c4ccc(F)c(F)c4F)CC3)OC2=O)cc1 [Example 2-3, 4-(8-{[1-(4-Chlorobenzyl)-4-(2,3,4-trifluorophenyl)-1H-pyrazol-3-yl]methyl}-2-oxo-1-oxa-3,8-diazaspiro[4.5]dec-3-yl)benzoic acid, TFA salt] in this work.

An IC50 of 121 nM was found for CC(C)n1nc(CN2CCC3(CC2)CN(c2ccc(C(=O)O)cc2)C(=O)O3)c2ccc(C#N)cc21 [Example 6-9, 4-(8-{[6-Cyano-1-(propan-2-yl)-1H-indazol-3-yl]methyl}-2-oxo-1-oxa-3,8-diazaspiro[4.5]dec-3-yl)benzoic acid, TFA salt] in this work.

An IC50 of 26.8 nM was found for COc1ccc(-c2nn(C(C)(C)C)cc2CN2CCCC3(CC2)CN(c2ccc(C(=O)O)cc2)C(=O)O3)cc1 (centres unmarked) [Example 2-14, 4-(8-{[1-tert-Butyl-3-(4-methoxyphenyl)-1H-pyrazol-4-yl]methyl}-2-oxo-1-oxa-3,8-diazaspiro[4.6]undec-3-yl)benzoic acid, TFA salt] in this work.

An IC50 of 2.7 nM was found for CCCCn1cc(CN2CCC3(CC2)CN(c2ccc(C(=O)O)cc2)C(=O)O3)c(-c2ccc(F)c(F)c2F)n1 [Example 1-18, 4-(8-{[1-Butyl-3-(2,3,4-trifluorophenyl)-1H-pyrazol-4-yl]methyl}-2-oxo-1-oxa-3,8-diazaspiro[4.5]dec-3-yl)benzoic acid, TFA salt] in this work.

An IC50 of 0.225 nM was found for CC(C)n1cc(CN2CCC3(CC2)CN(c2ccc(C(=O)O)cc2)C(=O)O3)c2c(OCc3ccccc3)cccc21 [Example 6-18, 4-(8-{[4-(Benzyloxy)-1-(propan-2-yl)-1H-indol-3-yl]methyl}-2-oxo-1-oxa-3,8-diazaspiro[4.5]dec-3-yl)benzoic acid, TFA salt] in this work.

An IC50 of 137 nM was found for CC(C)(C)Cn1nc(CN2CCC3(CC2)CN(c2ccc(C(=O)O)cc2)C(=O)O3)c2cc(F)ccc21 [Example 6-10, 4-(8-{[1-(2,2-Dimethylpropyl)-5-fluoro-1H-indazol-3-yl]methyl}-2-oxo-1-oxa-3,8-diazaspiro[4.5]dec-3-yl)benzoic acid, TFA salt] in this work.

An IC50 of 1.21 nM was found for CCOc1cc(CN2CCC3(CC2)CN(c2ccc(C(=O)O)c(Cl)c2)C(=O)O3)cc(OCC)c1-c1ccc(F)cc1 [Example 3-9, 2-Chloro-4-{8-[(2,6-diethoxy-4′-fluorobiphenyl-4-yl)methyl]-2-oxo-1-oxa-3,8-diazaspiro[4.5]dec-3-yl}benzoic acid, TFA salt] in this work.

An IC50 of 86 nM was found for O=C(O)c1ccc(N2CC3(CCN(Cc4nc(-c5ccccc5)oc4-c4ccccc4)CC3)OC2=O)cc1 [Example 6-34, 4-{8-[(2,5-Diphenyl-1,3-oxazol-4-yl)methyl]-2-oxo-1-oxa-3,8-diazaspiro[4.5]dec-3-yl}benzoic acid, TFA salt] in this work.

An IC50 of 0.941 nM was found for CCOc1cc(CN2CCC3(CC2)CN(c2ccc(C(=O)O)cn2)C(=O)O3)cc(OCC)c1-c1ccc(F)cc1 [Example 3-11, 6-{8-[(2,6-Diethoxy-4′-fluorobiphenyl-4-yl)methyl]-2-oxo-1-oxa-3,8-diazaspiro[4.5]dec-3-yl}pyridine-3-carboxylic acid, TFA salt] in this work.

An IC50 of 68.1 nM was found for COc1ccc2c(CN3CCC4(CC3)CN(c3ccc(C(=O)O)cc3)C(=O)O4)nn(C(C)C)c2c1 [Example 6-6, 4-(8-{[6-Methoxy-1-(propan-2-yl)-1H-indazol-3-yl]methyl}-2-oxo-1-oxa-3,8-diazaspiro[4.5]dec-3-yl)benzoic acid, TFA salt] in this work.

An IC50 of 0.943 nM was found for O=C(O)c1ccc(N2CC3(CCN(Cc4cn(C5CCCCC5)nc4-c4ccc(F)c(Cl)c4)CC3)OC2=O)cc1 [Example 1-2, 4-(8-{[3-(3-Chloro-4-fluorophenyl)-1-cyclohexyl-1H-pyrazol-4-yl]methyl}-2-oxo-1-oxa-3,8-diazaspiro[4.5]dec-3-yl)benzoic acid, TFA salt] in this work.

An IC50 of 0.55 nM was found for CC(C)n1cc(CN2CCC3(CC2)CN(c2ccc(C(=O)O)cc2)C(=O)O3)c2cc(Br)ccc21 [Example 6-25, 4-(8-{[5-Bromo-1-(propan-2-yl)-1H-indol-3-yl]methyl}-2-oxo-1-oxa-3,8-diazaspiro[4.5]dec-3-yl)benzoic acid, TFA salt] in this work.

An IC50 of 0.323 nM was found for CCOc1cc(CN2CCC3(CC2)CN(c2ccc(-c4nn[nH]n4)cc2)C(=O)O3)cc(OCC)c1-c1ccc(F)cc1 [Example 3-12, 8-[(2,6-Diethoxy-4′-fluorobiphenyl-4-yl)methyl]-3-[4-(2H-tetrazol-5-yl)phenyl]-1-oxa-3,8-diazaspiro[4.5]decan-2-one, TFA salt] in this work.

An IC50 of 1.45 nM was found for COc1ccc2c(c1)c(CN1CCC3(CC1)CN(c1ccc(C(=O)O)cc1)C(=O)O3)cn2C(C)C [Example 6-26, 4-(8-{[5-Methoxy-1-(propan-2-yl)-1H-indol-3-yl]methyl}-2-oxo-1-oxa-3,8-diazaspiro[4.5]dec-3-yl)benzoic acid, TFA salt] in this work.

An IC50 of 1.5 nM was found for CCOc1ccc(-c2nccs2)c(CN2CCC3(CC2)CN(c2ccc(C(=O)O)cc2)C(=O)O3)c1 [Example 4-27, 4-{8-[5-Ethoxy-2-(1,3-thiazol-2-yl)benzyl]-2-oxo-1-oxa-3,8-diazaspiro[4.5]dec-3-yl}benzoic acid, TFA salt] in this work.

An IC50 of 153 nM was found for Cc1nc(-c2ccccc2)c(CN2CCC3(CC2)CN(c2ccc(C(=O)O)cc2)C(=O)O3)s1 [Example 6-33, 4-{8-[(2-Methyl-4-phenyl-1,3-thiazol-5-yl)methyl]-2-oxo-1-oxa-3,8-diazaspiro[4.5]dec-3-yl}benzoic acid, TFA salt] in this work.

An IC50 of 13.4 nM was found for O=C(O)c1ccc(N2CC3(CCN(Cc4c(-c5ccccc5)nc5ccccn45)CC3)OC2=O)cc1 [Example 6-37, 4-{2-Oxo-8-[(2-phenylimidazo[1,2-a]pyridin-3-yl)methyl]-1-oxa-3,8-diazaspiro[4.5]dec-3-yl}benzoic acid, TFA salt] in this work.

An IC50 of 0.546 nM was found for CC(C)Oc1ccc(-c2ccc(F)c(F)c2F)c(CN2CCC3(CC2)CN(c2ccc(C(=O)O)cc2)C(=O)O3)c1 [Example 4-6, 4-{8-[(4-(Prop-2-yloxy)-2′,3′,4′-trifluorobiphenyl-2-yl)methyl]-2-oxo-1-oxa-3,8-diazaspiro[4.5]dec-3-yl}benzoic acid, TFA salt] in this work.

An IC50 of 1.4 nM was found for CCOc1cc(CN2CCC3(CC2)CN(c2ccc(C(=O)O)nc2)C(=O)O3)cc(OCC)c1-c1ccc(F)cc1 [Example 3-4, 5-{8-[(2,6-Diethoxy-4′-fluorobiphenyl-4-yl)methyl]-2-oxo-1-oxa-3,8-diazaspiro[4.5]dec-3-yl}pyridine-2-carboxylic acid, TFA salt] in this work.

An IC50 of 1.33 nM was found for O=C(O)c1ccc(N2CC3(CCN(Cc4cn(C5CCCCC5)nc4-c4ccc(F)c(F)c4F)CC3)OC2=O)cc1 [Example 1-19, 4-(8-{[1-Cyclohexyl-3-(2,3,4-trifluorophenyl)-1H-pyrazol-4-yl]methyl}-2-oxo-1-oxa-3,8-diazaspiro[4.5]dec-3-yl)benzoic acid, TFA salt] in this work.

An IC50 of 14.3 nM was found for CCCCn1nc(Cc2cc(F)c(F)cc2F)c(CN2CCC3(CC2)CN(c2ccc(C(=O)O)cc2)C(=O)O3)c1Cl [Example 1-44, 4-(8-{[5-Chloro-1-butyl-3-(2,4,5-trifluorobenzyl)-1H-pyrazol-4-yl]methyl}-2-oxo-1-oxa-3,8-diazaspiro[4.5]dec-3-yl)benzoic acid, TFA salt] in this work.

An IC50 of 2.81 nM was found for O=C(O)c1ccc(N2CC3(CCN(Cc4cn(-c5ccccc5)nc4-c4ccccc4)CC3)OC2=O)cc1 [Example 1-3, 4-{8-[(1,3-Diphenyl-1H-pyrazol-4-yl)methyl]-2-oxo-1-oxa-3,8-diazaspiro[4.5]dec-3-yl}benzoic acid, TFA salt] in this work.

An IC50 of 1.29 nM was found for O=C(O)c1ccc(N2CC3(CCN(Cc4cn(C5CCCCC5)nc4-c4cc(F)c(F)cc4F)CC3)OC2=O)cc1 [Example 1-33, 4-(8-{[1-Cyclohexyl-3-(2,4,5-trifluorophenyl)-1H-pyrazol-4-yl]methyl}-2-oxo-1-oxa-3,8-diazaspiro[4.5]dec-3-yl)benzoic acid, TFA salt] in this work.

An IC50 of 8.34 nM was found for CCCCn1cc(CN2CCC3(CC2)CN(c2ccc(C(=O)O)cc2)C(=O)O3)c(Cc2cc(F)c(F)cc2F)n1 [Example 1-40, 4-(8-{[1-Butyl-3-(2,4,5-trifluorobenzyl)-1H-pyrazol-4-yl]methyl}-2-oxo-1-oxa-3,8-diazaspiro[4.5]dec-3-yl)benzoic acid, TFA salt] in this work.
